Values of other authors in PubChem BioAssay AID1259410 (Chemical Carcinogenesis Research Information System (CCRIS), 2018).

Tested on: rodent tumor promotion studies, tumor incidence
Experiment: CCRIS tumor promotion studies
[1] = Carcinogen: 7,12-DIMETHYLBENZ(A)ANTHRACENE, Doses [Carcinogen]: TOP, Route [Carcinogen]: DERMAL, Route [Promoter]: DERMAL, Species: MOUSE, Strain/Sex: FEMALE

O=[N+]([O-])c1ccc(F)c([N+](=O)[O-])c1
outcome (Carcinogen: 7,12-DIMETHYLBENZ[A]ANTHRACENE, 57-97-6, Doses [Carcinogen]: 2.5 UG IN 200 µL ACETONE ONCE, Doses [Promoter]: 0, 0.1, 0.2% IN ACETONE/OLIVE OIL (4:1) 2/WK FOR 52 WK BEGINNING 2 WK POST CARCINOGEN DOSE (STUDY DURATION: 54 WK), Doses [Promoter]: 0, 0.1, 0.2% IN ACETONE/OLIVE OIL (4:1) 2/WK FOR 52 WK BEGINNING 2 WK POST CARCINOGEN DOSE (STUDY DURATION: 54 WK), Route [Carcinogen]: DERMAL, Route [Promoter]: DERMAL, Species: MOUSE, Strain/Sex: SENCAR/FEMALE): skin: tumor
outcome (Carcinogen: 7,12-DIMETHYLBENZ[A]ANTHRACENE, 57-97-6, Doses [Carcinogen]: 100 NMOL ONCE, Doses [Promoter]: 0, 0.1, 0.2% 2/WK FOR 27 WK BEGINNING 2 WK POST CARCINOGEN DOSE (STUDY DURATION: 59 WK), Doses [Promoter]: 0, 0.1, 0.2% 2/WK FOR 27 WK BEGINNING 2 WK POST CARCINOGEN DOSE (STUDY DURATION: 59 WK), Route [Carcinogen]: DERMAL, Route [Promoter]: DERMAL, Species: MOUSE, Strain/Sex: SENCAR/FEMALE): skin: tumor

O=C(OOC(=O)c1ccccc1)c1ccccc1
outcome [1]: integumentary system (skin)
outcome (Carcinogen: 7,12-DIMETHYLBENZ[A]ANTHRACENE, 57-97-6, Doses [Carcinogen]: 0.1% IN MINERAL OIL APPLIED TO BUCCAL POUCHES 3/WK FOR 10 WK, Doses [Promoter]: 0, 40% IN ACETONE APPLIED TO BUCCAL POUCHES 3/WK FOR 6 WK BEGINNING 6 WK POST CARCINOGEN TREATMENT (STUDY DURATION: 25 W, Route [Carcinogen]: DERMAL, Route [Promoter]: DERMAL, Species: HAMSTER, Strain/Sex: SYRIAN/MALE, FEMALE): buccal pouch: tumor, carcinoma
outcome (Carcinogen: 7,12-DIMETHYLBENZ[A]ANTHRACENE, 57-97-6, Doses [Carcinogen]: 20 NMOL IN ACETONE ONCE, Doses [Promoter]: 0, 0.2 ML OF 100 MG/ML SOLUTION IN ACETONE 2/WK FOR 51 WK (STUDY DURATION: 52 WK), Route [Carcinogen]: DERMAL, Route [Promoter]: DERMAL, Species: MOUSE, Strain/Sex: SENCAR/FEMALE): skin: squamous cell carcinoma
outcome (Carcinogen: N-METHYL-N'-NITRO-N-NITROSOGUANIDINE, 70-25-7, Doses [Carcinogen]: 4 UMOL IN 200 µL ACETONE ONCE, Doses [Promoter]: 0, 10, 20 MG IN 200 µL ACETONE 2/WK FOR 52 WK BEGINNING 2 WK POST CARCINOGEN DOSE (STUDY DURATION: 52 WK), Doses [Promoter]: 0, 10, 20 MG IN 200 µL ACETONE 2/WK FOR 52 WK BEGINNING 2 WK POST CARCINOGEN DOSE (STUDY DURATION: 52 WK), Route [Carcinogen]: DERMAL, Route [Promoter]: DERMAL, Species: MOUSE, Strain/Sex: C3H/FEMALE): skin: tumor

CC(O)(CS(=O)(=O)c1ccc(F)cc1)C(=O)Nc1ccc(C#N)c(C(F)(F)F)c1 (configuration not stated)
outcome (Carcinogen: 3,2'-DIMETHYL-4-AMINOBIPHENYL, 13394-86-0, Doses [Carcinogen]: 50 MG/KG BW ONCE/2 WK FOR FIRST 20 WK, Doses [Promoter]: 0, 10, 30 MG/KG BW BY GAVAGE 3X/WK FOR 40 WK BEGINNING 20 WK POST CARCINOGEN TREATMENT (STUDY DURATION: 60 WK), Doses [Promoter]: 0, 10, 30 MG/KG BW BY GAVAGE 3X/WK FOR 40 WK BEGINNING 20 WK POST CARCINOGEN TREATMENT (STUDY DURATION: 60 WK), Route [Carcinogen]: SUBCUTANEOUS, Route [Promoter]: ORAL, Species: RAT, Strain/Sex: F344/MALE): prostate (ventral): adenocarcinoma

CNCCCN1c2ccccc2CCc2ccccc21
outcome (Carcinogen: AZOXYMETHANE, 25843-45-2, Doses [Carcinogen]: 7.4 MG/KG BW IN 0.9% SALINE 1/WK FOR 10 WK, Doses [Promoter]: 0, 10 MG/KG BW IN 0.9% SALINE 1/2 D FOR 10 WK ON SAME DAY AS CARCINOGEN ADMINISTRATION (STUDY DURATION: 35 WK), Route [Carcinogen]: SUBCUTANEOUS, Route [Promoter]: SUBCUTANEOUS, Species: RAT, Strain/Sex: WISTAR/MALE): colon: tumor

Cc1ccc(C)c(O)c1
outcome [1]: integumentary system (skin)

NC(CO)C(=O)O (configuration not stated)
outcome (Carcinogen: N-ETHYL-N-HYDROXYETHYLNITROSAMINE, 13147-25-6, Doses [Carcinogen]: 500 PPM IN DIET FOR 2 WK, Doses [Promoter]: 0, 100 MG/100 G BW IN 2 ML 5% SALINE GIVEN 1/2 WK FOR 3 DOSES BEGINNING 1 WK POST CARCINOGEN (STUDY DURATION: 32 WK), Route [Carcinogen]: ORAL, Route [Promoter]: SUBCUTANEOUS, Species: RAT, Strain/Sex: WISTAR/MALE): kidney: dark cell tumor, clear cell tumor, adenocarcinoma
outcome (Carcinogen: N-ETHYL-N-HYDROXYETHYLNITROSAMINE, 13147-25-6, Doses [Carcinogen]: 1000 PPM IN DIET FOR 2 WK, Doses [Promoter]: 0, 100 MG/100 G BW IN 2 ML 5% SALINE GIVEN 1/2 WK FOR 3 DOSES BEGINNING 1 WK POST CARCINOGEN (STUDY DURATION: 32 WK), Route [Carcinogen]: ORAL, Route [Promoter]: SUBCUTANEOUS, Species: RAT, Strain/Sex: WISTAR/MALE): kidney: dark cell tumor, clear cell tumor, adenocarcinoma

CCCCN(CCCC)N=O
outcome (Carcinogen: DIETHYLNITROSAMINE, 55-18-5, N-METHYLNITROSOUREA, 684-93-3, DIHYDROXY-DI-N- PROPYLNITROSAMINE, 53609-64-6, Carcinogen: DIETHYLNITROSAMINE, 55-18-5, N-METHYLNITROSOUREA, 684-93-3, DIHYDROXY-DI-N- PROPYLNITROSAMINE, 53609-64-6, Doses [Carcinogen]: 100 MG/KG IN SALINE AT BEGINNING OF STUDY, 20 MG/KG IN CITRATE BUFFERED SOLUTION ON D 2, 5, 8 AND 11, 0.1% IN DRINKING, Doses [Carcinogen]: 100 MG/KG IN SALINE AT BEGINNING OF STUDY, 20 MG/KG IN CITRATE BUFFERED SOLUTION ON D 2, 5, 8 AND 11, 0.1% IN DRINKING, Doses [Promoter]: 0, 50 PPM IN DRINKING WATER BEGINNING POST SEQUENTIAL CARCINOGEN TREATMENT AND CONTINUING FOR DURATION OF STUDY (STUDY D, Route [Carcinogen]: IP, IP, ORAL, Route [Carcinogen]: IP, IP, ORAL, Route [Promoter]: ORAL, Species: RAT, Strain/Sex: F344/MALE): esophagus: papilloma, squamous cell carcinoma; tongue: papilloma
outcome (Carcinogen: DIETHYLNITROSAMINE, 55-18-5, N-METHYLNITROSOUREA, 684-93-5, DIHYDROXY-DI-N- PROPYLNITROSAMINE, 53609-64-6, Carcinogen: DIETHYLNITROSAMINE, 55-18-5, N-METHYLNITROSOUREA, 684-93-5, DIHYDROXY-DI-N- PROPYLNITROSAMINE, 53609-64-6, Doses [Carcinogen]: 100 MG/KG IN SALINE AT BEGINNING OF STUDY, 20 MG/KG IN CITRATE BUFFERED SOLUTION ON D 2, 5, 8 AND 11, 0.1% IN DRINKING, Doses [Carcinogen]: 100 MG/KG IN SALINE AT BEGINNING OF STUDY, 20 MG/KG IN CITRATE BUFFERED SOLUTION ON D 2, 5, 8 AND 11, 0.1% IN DRINKING, Doses [Promoter]: 0, 50 PPM IN DRINKING WATER BEGINNING POST SEQUENTIAL CARCINOGEN TREATMENT AND CONTINUING FOR DURATION OF STUDY (STUDY D, Route [Carcinogen]: IP, IP, ORAL, Route [Carcinogen]: IP, IP, ORAL, Route [Promoter]: ORAL, Species: RAT, Strain/Sex: F344/MALE): lung: adenoma; esophagus: papilloma

O=c1cc(-c2ccccc2)oc2ccc3ccccc3c12
outcome (Carcinogen: (+/-)-TRANS-7,8-DIHYDROBENZO[A]PYRENE-7,8-DIOL, 61443-57-0, Doses [Carcinogen]: 1 UG CO-ADMINISTERED WITH PROMOTER DOSE, Doses [Promoter]: 1 UG INJECTED INTO NEWLY HATCHED SAC-FRY CO-ADMINISTERED WITH CARCINOGEN DOSE (STUDY DURATION: 9 MO), Route [Carcinogen]: INJECTION, Route [Promoter]: INJECTION, Species: FISH, Strain/Sex: RAINBOW TROUT/MALE,FEMALE): liver: tumor
outcome (Carcinogen: DIETHYLNITROSAMINE, 55-18-5, Doses [Carcinogen]: 200 MG/KG BW ONCE (STUDY DURATION: 28 WK), Doses [Promoter]: 1% IN DIET FOR 26 WK BEGINNING 2 WK POST LAST CARCINOGEN DOSE, 2/3 PARTIAL HEPATECTOMY PERFORMED AT WEEK 3 (STUDY DURATI, Route [Carcinogen]: INTRAPERITONEAL, Route [Promoter]: ORAL, Species: RAT, Strain/Sex: F344/MALE): liver: tumor
outcome (Doses [Carcinogen]: 0.5 PPM AQUEOUS SOLUTION FOR 30 MIN EXPOSURE OF EMBRYOS 21 D AFTER FERTILIZATION, Doses [Promoter]: 0.05% IN DIET FOR 8 WK (STUDY DURATION: 1 YR), Route [Carcinogen]: IMMERSION, Route [Promoter]: ORAL, Species: FISH, Strain/Sex: MT. SHASTA RAINBOW TROUT): liver: hepatocellular carcinoma or mixed carcinoma or hepatocellular adenoma

O=C1C2(Cl)C3(Cl)C4(Cl)C(Cl)(Cl)C5(Cl)C3(Cl)C1(Cl)C5(Cl)C24Cl (configuration not stated)
outcome (Carcinogen: DIETHYLNITROSAMINE, 55-18-5, Doses [Carcinogen]: 20 MG/KG IN WATER ONCE, Doses [Promoter]: 0, 9 MG/KG 2/WK FOR 27 WK BEGINNING 10 D POST CARCINOGEN DOSE (STUDY DURATION: 30 WK), Route [Carcinogen]: GAVAGE, Route [Promoter]: SUBCUTANEOUS, Species: RAT, Strain/Sex: SPRAGUE-DAWLEY/FEMALE): liver: hepatocellular carcinoma
